Assay results published in ChEMBL document CHEMBL5143585, “Discovery and characterization of benzyloxy piperidine based dopamine 4 receptor antagonists” (Bioorg Med Chem Lett, 2022).

Experiments:
D(4) dopamine receptor = molecular target: T1, D(4) dopamine receptor (Homo sapiens, UniProt P21917); experiment: Displacement of [3H]N-methylspiperone from human D4 receptor expressed in HEK293 cell membrane by competitive inhibition based analysis; format: cell membranes
T1 sequence (P21917 whole entry): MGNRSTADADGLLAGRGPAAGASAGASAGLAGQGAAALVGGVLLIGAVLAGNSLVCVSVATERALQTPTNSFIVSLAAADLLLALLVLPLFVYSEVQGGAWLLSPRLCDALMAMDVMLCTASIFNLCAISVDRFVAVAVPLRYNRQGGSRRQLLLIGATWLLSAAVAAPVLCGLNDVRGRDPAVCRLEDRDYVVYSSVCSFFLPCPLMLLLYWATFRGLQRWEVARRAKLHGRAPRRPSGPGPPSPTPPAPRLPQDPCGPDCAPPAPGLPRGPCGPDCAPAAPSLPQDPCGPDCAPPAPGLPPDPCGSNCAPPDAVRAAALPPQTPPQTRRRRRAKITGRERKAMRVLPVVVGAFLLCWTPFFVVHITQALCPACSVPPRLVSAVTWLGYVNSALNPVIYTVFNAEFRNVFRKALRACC

[1] = Protein binding in human plasma assessed as unbound fraction; format: ADME, cell-free
D(1B) dopamine receptor = D(1B) dopamine receptor (Homo sapiens, UniProt P21918); experiment: Displacement of [3H]-SCH23390 from human D5 receptor expressed in HEK293 cell membrane at 10 uM by competitive inhibition based analysis; format: cell membranes
D(1A) dopamine receptor = D(1A) dopamine receptor (Homo sapiens, UniProt P21728); experiment: Displacement of [3H]-SCH23390 from human D1 receptor expressed in HEK293 cell membrane at 10 uM by competitive inhibition based analysis; format: cell membranes
D(3) dopamine receptor = D(3) dopamine receptor (Homo sapiens, UniProt P35462); experiment: Displacement of [3H]N-methylspiperone from human D3 receptor expressed in HEK293 cell membrane at 10 uM by competitive inhibition based analysis; format: cell membranes
[2] = Protein binding in mouse plasma assessed as unbound fraction; format: ADME, cell-free
[3] = molecular target: D(2) dopamine receptor (Homo sapiens) (UniProt P14416); experiment: Displacement of [3H]N-methylspiperone from human D2 receptor expressed in HEK293 cell membrane at 10 uM by competitive inhibition based analysis; format: cell membranes
[4] = molecular target: T2, D(4) dopamine receptor (Homo sapiens) (UniProt P21917); experiment: Displacement of [3H]N-methylspiperone from human D4 receptor expressed in HEK293 cell membrane at 10 uM by competitive inhibition based analysis; format: cell membranes
T2 sequence (whole entry): T1 sequence (P21917 whole entry)

D(2) dopamine receptor (Homo sapiens), sequence (P14416 whole entry): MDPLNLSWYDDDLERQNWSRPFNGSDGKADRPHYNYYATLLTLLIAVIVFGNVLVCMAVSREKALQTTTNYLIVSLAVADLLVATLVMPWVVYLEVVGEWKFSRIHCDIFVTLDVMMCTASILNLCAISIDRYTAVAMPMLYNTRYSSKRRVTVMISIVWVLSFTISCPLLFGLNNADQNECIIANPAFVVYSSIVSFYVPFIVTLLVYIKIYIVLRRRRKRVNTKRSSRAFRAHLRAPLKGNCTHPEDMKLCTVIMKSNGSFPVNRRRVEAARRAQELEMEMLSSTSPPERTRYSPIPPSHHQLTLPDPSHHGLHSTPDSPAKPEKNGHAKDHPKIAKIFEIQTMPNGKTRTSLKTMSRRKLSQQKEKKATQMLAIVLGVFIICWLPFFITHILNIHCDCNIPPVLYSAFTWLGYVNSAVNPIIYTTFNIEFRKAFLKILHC
D(1A) dopamine receptor, sequence (P21728 whole entry): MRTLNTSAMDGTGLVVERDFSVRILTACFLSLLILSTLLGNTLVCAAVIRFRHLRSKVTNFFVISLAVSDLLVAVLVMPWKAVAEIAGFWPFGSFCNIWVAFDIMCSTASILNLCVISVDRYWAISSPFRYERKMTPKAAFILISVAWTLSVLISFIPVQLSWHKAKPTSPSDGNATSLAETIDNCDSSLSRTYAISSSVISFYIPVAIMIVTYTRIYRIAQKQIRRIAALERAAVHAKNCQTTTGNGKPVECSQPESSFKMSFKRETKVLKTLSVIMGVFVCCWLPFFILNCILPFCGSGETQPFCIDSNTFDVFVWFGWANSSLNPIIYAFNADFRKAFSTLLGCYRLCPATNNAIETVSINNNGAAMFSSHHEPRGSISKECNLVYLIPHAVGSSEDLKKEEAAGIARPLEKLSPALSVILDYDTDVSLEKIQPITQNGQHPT
D(1B) dopamine receptor, sequence (P21918 whole entry): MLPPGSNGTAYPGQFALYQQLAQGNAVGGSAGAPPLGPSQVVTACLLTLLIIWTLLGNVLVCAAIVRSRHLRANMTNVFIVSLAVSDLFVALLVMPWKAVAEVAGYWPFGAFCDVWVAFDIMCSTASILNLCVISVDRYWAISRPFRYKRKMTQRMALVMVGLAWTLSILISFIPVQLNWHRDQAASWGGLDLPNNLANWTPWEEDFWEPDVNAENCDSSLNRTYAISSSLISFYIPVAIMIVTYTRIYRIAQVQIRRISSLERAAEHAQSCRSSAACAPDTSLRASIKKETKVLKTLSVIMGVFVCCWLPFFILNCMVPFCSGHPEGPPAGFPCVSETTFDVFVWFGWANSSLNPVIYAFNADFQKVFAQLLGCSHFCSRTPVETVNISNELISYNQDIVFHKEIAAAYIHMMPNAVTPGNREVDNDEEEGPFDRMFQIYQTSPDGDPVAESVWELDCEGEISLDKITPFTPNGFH
D(3) dopamine receptor, sequence (P35462 whole entry): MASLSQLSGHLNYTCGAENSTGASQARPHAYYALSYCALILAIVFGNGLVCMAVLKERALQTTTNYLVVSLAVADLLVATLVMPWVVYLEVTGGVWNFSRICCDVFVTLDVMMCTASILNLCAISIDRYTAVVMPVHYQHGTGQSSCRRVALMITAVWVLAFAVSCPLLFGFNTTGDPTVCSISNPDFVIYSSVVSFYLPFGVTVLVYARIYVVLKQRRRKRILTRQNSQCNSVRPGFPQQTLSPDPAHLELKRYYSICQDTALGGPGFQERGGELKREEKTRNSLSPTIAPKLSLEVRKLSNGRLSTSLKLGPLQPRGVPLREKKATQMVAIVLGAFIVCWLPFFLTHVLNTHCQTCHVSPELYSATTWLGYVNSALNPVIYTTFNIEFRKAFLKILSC

IC50 (D(4) dopamine receptor) [nM] | Ki (D(4) dopamine receptor) [nM] | Fu [1] [%] | inhibition (D(1B) dopamine receptor) [%] | inhibition (D(1A) dopamine receptor) [%] | inhibition (D(3) dopamine receptor) [%] | Fu [2] [%] | inhibition [3] [%] | inhibition ([4]; filed as antagonist) [%] | inhibition [4] [%] | SMILES
1740 | 1730 | – | – | – | – | – | – | – | – | Fc1ccc(COC2CCN(Cc3ccc4[nH]ncc4c3)CC2)cc1F
166 | 167 | 7 | < 50 | < 50 | < 50 | 35.5 | < 50 | – | – | Fc1cccc(COC2CCN(Cc3cn4ccccc4n3)CC2)c1
95.5 | 95.5 | 7.1 | < 50 | < 50 | < 50 | 13.2 | < 50 | – | – | Cc1nc(CN2CCC(OCc3ccc(Cl)c(F)c3)CC2)c2ccccn12
214 | 215 | – | < 50 | < 50 | < 50 | – | < 50 | – | – | Fc1ccc(COC2CCN(Cc3ncc4ccccn34)CC2)cc1F
– | – | – | – | – | – | – | – | 48 | – | Cn1cnc2cc(CN3CCC(OCc4ccc(Cl)c(F)c4)CC3)ccc21
162 | 166 | – | < 50 | < 50 | < 50 | – | < 50 | – | – | Cc1cc(CO[C@H]2CCCN(Cc3ncn4ccccc34)C2)ccc1F
– | – | – | < 50 | < 50 | < 50 | – | < 50 | 40.4 | – | FC(F)(F)Oc1cccc(CO[C@H]2CCCN(Cc3ncc4ccccn34)C2)c1
– | – | – | < 50 | < 50 | < 50 | – | < 50 | 45.8 | – | COc1ccc(CO[C@H]2CCCN(Cc3cccc(C)c3)C2)cc1F
372 | 375 | 0.2 | < 50 | < 50 | < 50 | 8.7 | < 50 | – | – | Fc1ccc(CO[C@H]2CCCN(Cc3cn4ccccc4n3)C2)cc1F
– | – | – | < 50 | < 50 | < 50 | – | < 50 | 44.9 | – | Fc1cccc(CO[C@H]2CCCN(Cc3ccc(Cl)cc3F)C2)c1
135 | 135 | – | < 50 | < 50 | < 50 | – | < 50 | – | – | COc1ccc(CN2CCC[C@H](OCc3ccc(F)c(C)c3)C2)cc1F
646 | 646 | – | < 50 | < 50 | < 50 | – | < 50 | – | – | FC(F)(F)Oc1cccc(CO[C@H]2CCCN(Cc3cn4ccccc4n3)C2)c1
– | – | – | < 50 | < 50 | < 50 | – | < 50 | – | 33.1 | Cc1ccc(CO[C@H]2CCCN(Cc3cccc(F)c3)C2)cc1
– | – | – | < 50 | < 50 | < 50 | – | < 50 | – | 22.5 | Cc1cccc(CO[C@H]2CCCN(Cc3cn4ccccc4n3)C2)n1
– | – | – | < 50 | < 50 | < 50 | – | < 50 | – | 18.9 | Cc1cccc(CO[C@H]2CCCN(Cc3ncc4ccccn34)C2)n1
1820 | 1830 | – | < 50 | < 50 | < 50 | – | < 50 | – | – | Cc1ccccc1CO[C@H]1CCCN(Cc2cn3ccccc3n2)C1
186 | 187 | – | < 50 | < 50 | < 50 | – | < 50 | – | – | Cc1cc(CO[C@H]2CCCN(Cc3cn4ccccc4n3)C2)ccc1F
– | – | – | < 50 | < 50 | < 50 | – | < 50 | – | 29.2 | Cc1ccccc1CN1CCC[C@H](OCc2cccc(F)c2)C1
851 | 860 | – | – | – | – | – | – | – | – | FC(F)(F)c1cccc(COC2CCN(Cc3ccc4[nH]ncc4c3)CC2)c1
479 | 478 | – | < 50 | < 50 | < 50 | – | < 50 | – | – | Cc1nc(CN2CCC(OCc3ccc(F)c(F)c3)CC2)c2ccccn12
166 | 165 | – | < 50 | < 50 | < 50 | – | < 50 | – | – | Cc1ccc(CN2CCC[C@H](OCc3ccc(F)c(C)c3)C2)cc1

IC50 (D(4) dopamine receptor) [nM] | Ki (D(4) dopamine receptor) [nM] | Fu [1] [%] | inhibition (D(1B) dopamine receptor) [%] | inhibition (D(1A) dopamine receptor) [%] | inhibition (D(3) dopamine receptor) [%] | Fu [2] [%] | inhibition [3] [%] | inhibition ([4]; filed as antagonist) [%] | inhibition [4] [%] | SMILES
316 | 319 | – | < 50 | < 50 | < 50 | – | < 50 | – | – | Cc1cccc(CO[C@H]2CCCN(Cc3cc4ccc(Cl)cc4[nH]3)C2)n1
204 | 206 | – | < 50 | < 50 | < 50 | – | < 50 | – | – | COc1ccc(CN2CCC[C@H](OCc3cccc(F)c3)C2)cc1F
240 | 241 | – | < 50 | < 50 | < 50 | – | < 50 | – | – | COc1ccc(CN2CCC[C@H](OCc3ccc(C)cc3)C2)cc1F
1380 | 1390 | – | < 50 | < 50 | < 50 | – | < 50 | – | – | Cc1ccc(CO[C@H]2CCCN(Cc3ccc(Cl)c(Cl)c3)C2)cc1
166 | 166 | 2.3 | < 50 | < 50 | < 50 | 40.5 | < 50 | – | – | Fc1cccc(COC2CCN(Cc3ncn4ccccc34)CC2)c1
– | – | – | < 50 | < 50 | < 50 | – | < 50 | 43.9 | – | Cc1ccccc1CO[C@H]1CCCN(Cc2ccc(Cl)c(Cl)c2)C1
347 | 343 | – | < 50 | < 50 | < 50 | – | < 50 | – | – | COc1ccc(CN2CCC[C@H](OCc3ccccc3C)C2)cc1F
170 | 170 | 0.9 | < 50 | < 50 | < 50 | 5.2 | < 50 | – | – | Cn1ncc2cc(CN3CCC(OCc4ccc(Cl)c(F)c4)CC3)ccc21
447 | 447 | 3.9 | < 50 | < 50 | < 50 | 18.1 | < 50 | – | – | Fc1ccc(CO[C@H]2CCCN(Cc3ncn4ccccc34)C2)cc1F
– | – | – | < 50 | < 50 | < 50 | – | < 50 | – | -1.6 | Cc1ccccc1CO[C@H]1CCCN(Cc2ccc(Cl)cc2F)C1
209 | 208 | – | < 50 | < 50 | < 50 | – | < 50 | – | – | FC(F)(F)c1cccc(COC2CCN(Cc3ncc4ccccn34)CC2)c1
158 | 158 | 1 | < 50 | < 50 | < 50 | 1.7 | < 50 | – | – | Fc1cc(COC2CCN(Cc3ncc4ccccn34)CC2)ccc1Cl
1950 | 1940 | – | < 50 | < 50 | < 50 | – | < 50 | – | – | Fc1cccc(CO[C@H]2CCCN(Cc3cn4ccccc4n3)C2)c1
575 | 580 | – | – | – | – | – | – | – | – | Fc1cc(COC2CCN(Cc3ccc4[nH]ncc4c3)CC2)ccc1Cl
2000 | 1980 | – | – | – | – | – | – | – | – | COc1ccc(CN2CCC[C@@H](OCc3ccc(F)c(C)c3)C2)cc1F
1050 | 1040 | – | < 50 | < 50 | < 50 | – | < 50 | – | – | COc1ccc(CN2CCC[C@H](OCc3cccc(C)n3)C2)cc1F
166 | 166 | 1.8 | < 50 | < 50 | < 50 | 17.1 | < 50 | – | – | FC(F)(F)c1cccc(COC2CCN(Cc3cn4ccccc4n3)CC2)c1
1020 | 1010 | – | < 50 | < 50 | < 50 | – | < 50 | – | – | Cc1ccc(CO[C@H]2CCCN(Cc3ccc(C#N)cc3)C2)cc1
1350 | 1340 | – | < 50 | < 50 | < 50 | – | < 50 | – | – | Fc1cccc(CO[C@H]2CCCN(Cc3ncn4ccccc34)C2)c1
1410 | 1400 | – | – | – | – | – | – | – | – | Cn1cnc2cc(CN3CCC(OCc4ccc(F)c(F)c4)CC3)ccc21
170 | 169 | 1.1 | < 50 | < 50 | < 50 | 2.6 | < 50 | – | – | COc1ccc(CN2CCC[C@H](OCc3ccc(F)c(F)c3)C2)cc1F
